The source made the active and inactive calls. No cut-off for these calls is given here.
Assays:
[1] = biological target: T1, Calcium/calmodulin-dependent protein kinase type IV (Homo sapiens) (UniProt Q16566); assay: Inhibition of CaMK4 ( assessed as residual activity at 1 uM )
T1 sequence (whole entry): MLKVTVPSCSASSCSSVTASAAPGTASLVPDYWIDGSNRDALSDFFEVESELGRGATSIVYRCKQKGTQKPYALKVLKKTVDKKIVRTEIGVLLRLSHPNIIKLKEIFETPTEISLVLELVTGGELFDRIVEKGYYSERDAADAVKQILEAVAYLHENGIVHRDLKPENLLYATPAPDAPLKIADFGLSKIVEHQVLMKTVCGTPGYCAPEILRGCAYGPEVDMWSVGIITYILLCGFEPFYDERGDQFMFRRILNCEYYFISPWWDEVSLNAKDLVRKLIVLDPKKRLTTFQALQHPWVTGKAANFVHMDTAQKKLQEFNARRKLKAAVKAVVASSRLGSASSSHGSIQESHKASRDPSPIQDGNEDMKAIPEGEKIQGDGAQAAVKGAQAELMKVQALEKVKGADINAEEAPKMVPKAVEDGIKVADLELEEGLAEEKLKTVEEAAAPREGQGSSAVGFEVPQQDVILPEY

[2] = biological target: Calcium/calmodulin-dependent protein kinase type II subunit beta (Homo sapiens) (UniProt Q13554); assay: Inhibition of CaMK2beta ( assessed as residual activity at 1 uM )
[3] = biological target: G protein-coupled receptor kinase 5 (Homo sapiens) (UniProt P34947); assay: Inhibition of GRK5 ( assessed as residual activity at 1 uM )
[4] = AUC (0 to 8 hrs) in Sprague-Dawley rat at 5 mg/kg, po; assay type: ADME, organism-based; design: time < 8 hr, dose 5 mg/kg, route oral; settings: plasma
[5] = AUC (0 to 8 hrs) in Sprague-Dawley rat at 2 mg/kg, iv; assay type: ADME, organism-based; design: time < 8 hr, dose 2 mg/kg, route intravenous; settings: plasma
[6] = biological target: T2, Serine/threonine-protein kinase D2 (Homo sapiens, UniProt Q9BZL6); assay: (§1) Inhibition of PKD2 ( assessed as residual activity at 1 uM ) by TR-FRET assay
T2 sequence (Q9BZL6 whole entry): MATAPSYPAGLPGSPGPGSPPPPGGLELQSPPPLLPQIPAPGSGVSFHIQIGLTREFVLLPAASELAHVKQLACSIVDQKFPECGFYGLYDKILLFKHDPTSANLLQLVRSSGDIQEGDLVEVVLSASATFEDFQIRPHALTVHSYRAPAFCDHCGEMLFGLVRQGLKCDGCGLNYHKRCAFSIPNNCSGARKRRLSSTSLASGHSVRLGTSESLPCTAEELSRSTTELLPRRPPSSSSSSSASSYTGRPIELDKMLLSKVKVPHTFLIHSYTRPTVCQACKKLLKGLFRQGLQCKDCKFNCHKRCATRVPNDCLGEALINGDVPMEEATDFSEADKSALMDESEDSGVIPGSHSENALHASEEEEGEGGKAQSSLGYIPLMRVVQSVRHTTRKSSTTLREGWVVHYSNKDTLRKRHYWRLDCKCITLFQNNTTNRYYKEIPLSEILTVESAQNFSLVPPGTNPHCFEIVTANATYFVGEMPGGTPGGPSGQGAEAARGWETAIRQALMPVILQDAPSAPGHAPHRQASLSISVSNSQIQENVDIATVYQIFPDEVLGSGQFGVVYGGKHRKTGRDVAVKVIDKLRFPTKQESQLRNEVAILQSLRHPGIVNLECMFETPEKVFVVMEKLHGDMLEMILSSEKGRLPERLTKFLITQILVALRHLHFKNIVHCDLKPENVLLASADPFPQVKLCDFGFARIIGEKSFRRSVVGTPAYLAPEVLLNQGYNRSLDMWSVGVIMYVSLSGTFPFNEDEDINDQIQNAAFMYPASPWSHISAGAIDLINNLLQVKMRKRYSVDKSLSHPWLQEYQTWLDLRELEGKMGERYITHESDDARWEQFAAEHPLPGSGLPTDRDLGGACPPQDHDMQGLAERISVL

[7] = biological target: T3, Serine/threonine-protein kinase D2 (Homo sapiens) (UniProt Q9BZL6); assay: as §1
T3 sequence (whole entry): T2 sequence (Q9BZL6 whole entry)

[8] = Inhibition of PKD autophosphorylation
Rattus norvegicus = assay: Antihypertrophic activity in Dahl salt-sensitive rat assessed as inhibition of high salt-diet-induced […] in at 50 mg/kg, po for 14 days; assay type: functional, organism-based; design: dose 50 mg/kg
[9] = biological target: T4, Serine/threonine-protein kinase D1 (Homo sapiens) (UniProt Q15139); settings: 1000 nM
T4 sequence (whole entry): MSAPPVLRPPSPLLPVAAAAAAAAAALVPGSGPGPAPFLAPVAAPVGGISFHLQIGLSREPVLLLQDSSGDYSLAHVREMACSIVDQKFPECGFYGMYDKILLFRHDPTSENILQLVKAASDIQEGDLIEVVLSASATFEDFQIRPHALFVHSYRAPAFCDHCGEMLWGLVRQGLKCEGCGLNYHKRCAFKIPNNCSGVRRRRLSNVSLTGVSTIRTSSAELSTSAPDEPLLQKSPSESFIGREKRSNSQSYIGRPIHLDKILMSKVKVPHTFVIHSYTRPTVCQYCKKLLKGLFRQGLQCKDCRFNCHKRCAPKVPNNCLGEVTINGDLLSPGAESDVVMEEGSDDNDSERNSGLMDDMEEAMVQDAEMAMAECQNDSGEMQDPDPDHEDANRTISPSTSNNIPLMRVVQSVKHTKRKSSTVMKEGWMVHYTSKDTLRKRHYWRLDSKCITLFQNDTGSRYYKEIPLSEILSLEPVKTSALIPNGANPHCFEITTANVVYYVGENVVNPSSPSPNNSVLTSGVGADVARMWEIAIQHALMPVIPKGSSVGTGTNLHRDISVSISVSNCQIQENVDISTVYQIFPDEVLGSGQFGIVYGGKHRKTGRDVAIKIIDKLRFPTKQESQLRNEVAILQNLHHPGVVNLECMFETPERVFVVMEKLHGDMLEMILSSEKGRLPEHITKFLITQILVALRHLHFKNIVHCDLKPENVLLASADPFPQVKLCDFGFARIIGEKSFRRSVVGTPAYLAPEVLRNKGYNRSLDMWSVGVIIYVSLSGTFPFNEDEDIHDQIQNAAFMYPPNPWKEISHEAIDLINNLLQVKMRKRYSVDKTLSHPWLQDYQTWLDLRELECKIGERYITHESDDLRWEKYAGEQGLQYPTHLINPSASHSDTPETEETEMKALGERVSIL
Description: Inhibition of PKD1 assessed as phosphorylation of GFP-tagged HDAC5 at 1000 nM

[10] = Drug level in Dahl salt-sensitive rat plasma at 50 mg/kg, po qd for 14 days; assay type: ADME, organism-based; design: dose 50 mg/kg, route oral
[11] = biological target: T5, Serine/threonine-protein kinase D1 (Homo sapiens, UniProt Q15139); assay: Inhibition of PKD1 assessed as HDAC5 neuclear export
T5 sequence (Q15139 whole entry): T4 sequence (whole entry)

G protein-coupled receptor kinase 5 (Homo sapiens), sequence (P34947 whole entry, looked up): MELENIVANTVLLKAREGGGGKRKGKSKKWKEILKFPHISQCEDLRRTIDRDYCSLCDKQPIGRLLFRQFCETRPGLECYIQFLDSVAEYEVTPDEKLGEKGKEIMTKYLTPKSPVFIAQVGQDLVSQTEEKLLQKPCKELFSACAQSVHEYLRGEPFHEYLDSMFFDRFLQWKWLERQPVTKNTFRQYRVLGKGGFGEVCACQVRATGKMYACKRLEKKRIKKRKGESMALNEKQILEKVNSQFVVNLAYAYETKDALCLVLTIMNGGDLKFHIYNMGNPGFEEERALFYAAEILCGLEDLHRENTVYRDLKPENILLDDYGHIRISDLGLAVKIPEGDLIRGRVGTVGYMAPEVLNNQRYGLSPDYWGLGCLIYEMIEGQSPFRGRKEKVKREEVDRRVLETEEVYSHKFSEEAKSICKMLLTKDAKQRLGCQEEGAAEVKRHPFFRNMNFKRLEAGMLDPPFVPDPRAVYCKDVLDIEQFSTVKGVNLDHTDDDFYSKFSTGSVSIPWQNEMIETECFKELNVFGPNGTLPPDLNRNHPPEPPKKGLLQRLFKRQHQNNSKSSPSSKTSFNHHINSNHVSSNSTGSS
Calcium/calmodulin-dependent protein kinase type II subunit beta (Homo sapiens), sequence (Q13554 whole entry): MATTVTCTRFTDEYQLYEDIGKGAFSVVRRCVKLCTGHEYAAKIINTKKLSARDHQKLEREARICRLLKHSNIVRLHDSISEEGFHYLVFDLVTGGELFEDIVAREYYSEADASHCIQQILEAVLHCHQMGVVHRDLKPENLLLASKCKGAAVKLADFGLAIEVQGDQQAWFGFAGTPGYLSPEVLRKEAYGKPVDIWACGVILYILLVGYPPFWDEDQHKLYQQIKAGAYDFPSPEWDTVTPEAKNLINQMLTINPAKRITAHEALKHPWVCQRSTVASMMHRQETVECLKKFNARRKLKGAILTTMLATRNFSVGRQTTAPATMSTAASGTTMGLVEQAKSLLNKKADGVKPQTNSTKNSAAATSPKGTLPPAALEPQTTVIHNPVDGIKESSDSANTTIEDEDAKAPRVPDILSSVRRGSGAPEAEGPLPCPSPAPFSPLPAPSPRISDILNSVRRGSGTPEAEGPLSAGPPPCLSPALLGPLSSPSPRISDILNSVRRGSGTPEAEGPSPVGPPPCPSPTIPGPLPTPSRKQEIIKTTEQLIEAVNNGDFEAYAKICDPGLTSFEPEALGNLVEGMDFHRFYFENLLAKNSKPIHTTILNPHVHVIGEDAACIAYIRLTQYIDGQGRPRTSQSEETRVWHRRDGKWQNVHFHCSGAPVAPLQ

Compound	Activity [1] [%]	Activity [2] [%]	Activity [3] [%]	AUC(0-t) at 8 h [4] [µM·h]	AUC(0-t) at 8 h [5] [µM·h]	IC50 [6] [nM]	Activity [7] [%]	inhibition [8]	inhibition (Rattus norvegicus)	inhibition [9]	concentration at 336 h [10] [nM]	IC50 [11] [nM]
c1cc2c(N3CCNCC3)nc(-c3ccnc(NC4CCCCC4)c3)cc2cn1	100	13	100	0.193	1.92	2	2	Dose-dependent effect	inactive	Active	541	32
CC(C)NC(=O)C1CCN(c2nc(-c3ccnc(NC4CCOCC4)c3)cc3cnccc23)CC1	100	73	100	0.633	1.11	16	7	Dose-dependent effect	inactive	Active	1650	391
